Measured values published in the supplement of paper PMC10307832.

Tests used:
Test in all cases: relative viability (nuclei count vs DMSO), 5 days (fraction); higher = more cells survive
[1] = compound: OCc1c[nH]c2ccccc12 [Indole-3-carbinol] + CS(=O)(=O)N1CCN(Cc2cc3nc(-c4cccc5[nH]ncc45)nc(N4CCOCC4)c3s2)CC1 [Pictilisib] (partner 1 µM)
In short: (§1)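 Relative viability divides the nuclei count in treated wells by that in vehicle wells. Lung cancer cell lines were seeded in 1536-well plates, dosed by pin tool the next day, and fixed and stained after 5 days in one step with final 0.05% Triton X-100, 1% formaldehyde and 1 ug/ml Hoechst. Dosing was a single drug or a fixed anchor-drug dose plus five library-drug doses (not always all listed) in √10 steps, and values are medians of duplicate plates imaged at 4×.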

[2] = compound: OCc1c[nH]c2ccccc12 [Indole-3-carbinol] + CC(=O)Nc1cccc(-n2c(=O)n(C3CC3)c(=O)c3c(Nc4ccc(I)cc4F)n(C)c(=O)c(C)c32)c1 [Trametinib] (partner 0.02 µM)
In short: as §1

[3] = compound: OCc1c[nH]c2ccccc12 [Indole-3-carbinol] + CC(=O)c1c(C)c2cnc(Nc3ccc(N4CCNCC4)cn3)nc2n(C2CCCC2)c1=O [Palbociclib] (partner 0.5 µM)
In short: as §1

[4] = compound: OCc1c[nH]c2ccccc12 [Indole-3-carbinol] + CS(=O)(=O)CCNCc1ccc(-c2ccc3ncnc(Nc4ccc(OCc5cccc(F)c5)c(Cl)c4)c3c2)o1 [Lapatinib] (partner 2 µM)
In short: as §1

[5] = compound: OCc1c[nH]c2ccccc12 [Indole-3-carbinol] + CCNC(=O)c1noc(-c2cc(C(C)C)c(O)cc2O)c1-c1ccc(CN2CCOCC2)cc1 [Luminespib] (partner 0.01 µM)
In short: as §1

Row | Cell Line | relative viability ([1]; first compound 0.253 µM) | relative viability ([1]; first compound 0.8 µM) | relative viability ([1]; first compound 2.53 µM) | relative viability ([1]; first compound 8 µM) | relative viability ([2]; first compound 0.253 µM) | relative viability ([2]; first compound 0.8 µM) | relative viability ([2]; first compound 2.53 µM) | relative viability ([2]; first compound 8 µM) | relative viability ([3]; first compound 0.253 µM) | relative viability ([3]; first compound 0.8 µM) | relative viability ([3]; first compound 2.53 µM) | relative viability ([3]; first compound 8 µM) | relative viability ([4]; first compound 0.253 µM) | relative viability ([4]; first compound 0.8 µM) | relative viability ([4]; first compound 2.53 µM) | relative viability ([4]; first compound 8 µM) | relative viability ([5]; first compound 0.253 µM) | relative viability ([5]; first compound 0.8 µM) | relative viability ([5]; first compound 2.53 µM) | relative viability ([5]; first compound 8 µM)
1 | NCI-H1793 | 0.461 | 0.204 | 0.376 | 0.271 | 0.403 | 0.442 | 0.455 | 0.481 | 0.346 | 0.281 | 0.298 | 0.315 | 1.18 | 0.621 | 0.702 | 0.623 | 0.171 | 0.179 | 0.142 | 0.175
2 | NCI-H1915 | 0.901 | 0.858 | 0.949 | 0.926 | 0.282 | 0.294 | 0.342 | 0.296 | 0.5 | 0.521 | 0.532 | 0.486 | 1.01 | 0.968 | 0.993 | 0.972 | 0.695 | 0.794 | 0.741 | 0.662
3 | NCI-H1944 | 0.329 | 0.3 | 0.348 | 0.301 | 0.425 | 0.378 | 0.393 | 0.417 | 0.338 | 0.279 | 0.304 | 0.311 | 0.856 | 0.606 | 0.922 | 0.843 | 0.792 | 0.682 | 0.842 | 0.79
4 | NCI-H1975 | 0.293 | 0.305 | 0.326 | 0.288 | 0.559 | 0.493 | 0.337 | 0.641 | 0.699 | 0.704 | 0.554 | 0.644 | 0.966 | 0.847 | 0.936 | 0.876 | 0.343 | 0.224 | 0.171 | 0.21
5 | NCI-H1993 | 0.795 | 0.802 | 0.808 | 0.806 | 0.483 | 0.519 | 0.513 | 0.554 | 0.713 | 0.635 | 0.664 | 0.521 | 0.827 | 0.839 | 0.791 | 0.773 | 1.02 | 0.915 | 0.889 | 0.823
6 | NCI-H2009 | 0.842 | 0.743 | 0.763 | 0.837 | 0.285 | 0.294 | 0.278 | 0.281 | 0.213 | 0.188 | 0.169 | 0.226 | 1.02 | 0.929 | 0.695 | 0.872 | 1.05 | 1.08 | 1.05 | 0.893
7 | NCI-H2023 | 0.218 | 0.237 | 0.23 | 0.236 | 0.525 | 0.532 | 0.555 | 0.473 | 0.396 | 0.469 | 0.334 | 0.375 | 0.817 | 0.882 | 0.778 | 0.891 | 0.526 | 0.751 | 0.818 | 0.707
8 | NCI-H2085 | 0.41 | 0.389 | 0.444 | 0.503 | 0.884 | 0.514 | 0.56 | 0.622 | 0.469 | 0.492 | 0.451 | 0.439 | 0.855 | 0.789 | 0.8 | 0.828 | 0.456 | 0.429 | 0.395 | 0.498
9 | NCI-H2087 | 0.726 | 1.07 | 0.91 | 0.833 | 0.179 | 0.23 | 0.193 | 0.201 | 0.193 | 0.278 | 0.27 | 0.262 | 1.32 | 0.952 | 1.12 | 0.814 | 0.119 | 0.194 | 0.177 | 0.172
10 | NCI-H2126 | 0.469 | 0.483 | 0.518 | 0.498 | 0.573 | 0.577 | 0.541 | 0.509 | 0.299 | 0.366 | 0.362 | 0.34 | 0.761 | 0.741 | 0.78 | 0.748 | 0.887 | 0.876 | 0.992 | 0.851
11 | NCI-H2170 | 0.329 | 0.308 | 0.322 | 0.311 | 0.882 | 0.859 | 0.892 | 0.869 | 0.384 | 0.375 | 0.41 | 0.42 | 0.281 | 0.28 | 0.253 | 0.289 | 0.74 | 0.665 | 0.841 | 0.624
12 | NCI-H2228 | 0.514 | 0.374 | 0.349 | 0.506 | 0.576 | 0.614 | 0.501 | 0.581 | 0.75 | 0.771 | 0.645 | 0.78 | 1.12 | 1.17 | 1.2 | 1.32 | 0.108 | 0.19 | 0.229 | 0.151
13 | NCI-H2347 | 0.673 | 0.532 | 0.719 | 0.599 | 0.422 | 0.276 | 0.296 | 0.29 | 0.426 | 0.471 | 0.419 | 0.407 | 0.937 | 1.03 | 1.08 | 0.672 | 0.609 | 0.215 | 0.425 | 0.59
14 | NCI-H2405 | 0.49 | 0.472 | 0.489 | 0.483 | 0.634 | 0.615 | 0.672 | 0.703 | 0.513 | 0.554 | 0.553 | 0.491 | 1.06 | 1.08 | 1.16 | 1.02 | 0.847 | 0.812 | 0.859 | 0.696
15 | NCI-H3122 | 0.553 | 0.673 | 0.592 | 0.588 | 0.229 | 0.255 | 0.234 | 0.248 | 0.188 | 0.196 | 0.176 | 0.183 | 1.05 | 1.01 | 1.04 | 1.05 | 0.0769 | 0.123 | 0.108 | 0.0975
16 | PC-3 [JPC-3] | 0.817 | 0.801 | 0.649 | 0.73 | 0.749 | 0.719 | 0.678 | 0.667 | 0.574 | 0.568 | 0.557 | 0.507 | 0.462 | 0.441 | 0.399 | 0.439 | 0.644 | 0.796 | 0.722 | 0.658
